Experimental data from ChEMBL document CHEMBL4823324, “Discovery of BMS-986318, a Potent Nonbile Acid FXR Agonist for the Treatment of Nonalcoholic Steatohepatitis” (ACS Med Chem Lett, 2021).

Target: T1, Progesterone receptor (Homo sapiens, UniProt P06401)
T1 sequence (P06401 whole entry): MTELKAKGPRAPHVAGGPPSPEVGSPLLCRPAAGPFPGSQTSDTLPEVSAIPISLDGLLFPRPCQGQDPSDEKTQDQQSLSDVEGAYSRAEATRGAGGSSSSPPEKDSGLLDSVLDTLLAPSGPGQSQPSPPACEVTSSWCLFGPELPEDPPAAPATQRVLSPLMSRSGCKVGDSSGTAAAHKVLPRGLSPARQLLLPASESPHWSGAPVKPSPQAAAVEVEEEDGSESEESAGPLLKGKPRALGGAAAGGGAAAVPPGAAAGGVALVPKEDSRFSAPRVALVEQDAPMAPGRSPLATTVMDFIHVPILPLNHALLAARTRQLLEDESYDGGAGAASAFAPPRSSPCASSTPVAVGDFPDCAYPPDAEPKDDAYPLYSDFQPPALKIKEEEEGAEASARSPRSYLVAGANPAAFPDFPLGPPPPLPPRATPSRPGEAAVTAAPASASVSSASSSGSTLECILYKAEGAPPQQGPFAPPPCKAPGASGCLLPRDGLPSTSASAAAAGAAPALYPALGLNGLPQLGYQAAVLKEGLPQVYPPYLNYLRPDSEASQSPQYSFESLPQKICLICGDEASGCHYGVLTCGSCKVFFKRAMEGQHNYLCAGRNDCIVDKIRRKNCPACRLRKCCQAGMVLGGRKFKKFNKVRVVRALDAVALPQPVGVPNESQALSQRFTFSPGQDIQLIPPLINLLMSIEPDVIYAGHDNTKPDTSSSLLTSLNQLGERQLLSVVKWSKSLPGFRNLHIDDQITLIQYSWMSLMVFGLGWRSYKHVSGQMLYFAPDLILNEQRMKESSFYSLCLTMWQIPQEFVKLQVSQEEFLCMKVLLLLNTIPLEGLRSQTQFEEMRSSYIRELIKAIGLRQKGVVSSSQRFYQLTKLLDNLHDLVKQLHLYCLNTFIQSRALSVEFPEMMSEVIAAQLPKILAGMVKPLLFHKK
Experiment: Activation of progesterone receptor (unknown origin) by fluorescence polarization based competition assay

**Q.** With O=C(O)c1cc(C(F)(F)F)c2cc(N3CCC4(C=C(c5c(-c6c(Cl)cncc6Cl)noc5C5CC5)C4)CC3)ccc2n1 as the compound, how does the EC50 read?
**A.** The EC50 was greater than 40 µM.
